# From PubChem BioAssay AID220 (DTP/NCI, 2004)
# Values joined by “and” are separate entries in the source; they are usually repeats but may differ in a detail not shown here. Identical values can stand only once. Records with an inconclusive call do not appear. Residues, ends and D or L forms follow the SMILES beside them. *: point of attachment. Trt = c1ccc(C(c2ccccc2)(c2ccccc2)*)cc1; Cbz = O=C(OCc1ccccc1)*
# Test system: CD8F1 mice, subcutaneous mammary adenocarcinoma, T/C%
# Assay: NCI In Vivo Anticancer Drug Screen. Data for tumor model Mammary Adenocarcinoma CD8F1 (subcutaneous) in CD8F1
# Details: higher = larger tumour
# Method in brief: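 Transplantable tumors were established in mice, animals were dosed with compound or vehicle, and survival or tumor size was then measured in both groups. The treated result was divided by the control result.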
# [1] = endpoint: median tumor weight change, dose: 125.0 mg/kg/injection, schedule: Q01DX001 (ip), vehicle: saline with Tween-80
# [2] = endpoint: median tumor weight change, dose: 500.0 mg/kg/injection, schedule: Q01DX001 (ip), vehicle: saline with Tween-80
structure (smiles),measurement,setting,value
CC1CCC(NC(=O)N(CCCl)N=O)CC1 (configuration not stated),T/C,"endpoint: mean tumor weight, dose: 6.25 mg/kg/injection, schedule: Q01DX009 (ip), vehicle: saline + alcohol",108 % of control
same,T/C,"endpoint: mean tumor weight, dose: 6.25 mg/kg/injection, schedule: Q01DX009 (ip), vehicle: saline",214 % of control
same,T/C,"endpoint: mean tumor weight, dose: 12.5 mg/kg/injection, schedule: Q01DX009 (ip), vehicle: saline + alcohol",27 % of control
same,T/C,"endpoint: mean tumor weight, dose: 12.5 mg/kg/injection, schedule: Q01DX009 (ip), vehicle: saline",50 % of control
same,T/C,"endpoint: mean tumor weight, dose: 12.5 mg/kg/injection, schedule: Q07DX006 (ip), vehicle: saline + alcohol",63 % of control
same,T/C,"endpoint: mean tumor weight, dose: 12.5 mg/kg/injection, schedule: Q07DX006 (ip), vehicle: saline",24 % of control
same,T/C,"endpoint: mean tumor weight, dose: 12.5 mg/kg/injection, schedule: Q07DX007 (ip), vehicle: saline + alcohol",124 % of control
same,T/C,"endpoint: mean tumor weight, dose: 25.0 mg/kg/injection, schedule: Q01DX009 (ip), vehicle: saline",47 % of control
same,T/C,"endpoint: mean tumor weight, dose: 25.0 mg/kg/injection, schedule: Q07DX006 (ip), vehicle: saline + alcohol",28 % of control
same,T/C,"endpoint: mean tumor weight, dose: 25.0 mg/kg/injection, schedule: Q07DX006 (ip), vehicle: saline",48 % of control
same,T/C,"endpoint: mean tumor weight, dose: 25.0 mg/kg/injection, schedule: Q07DX007 (ip), vehicle: saline + alcohol",100 % of control
same,T/C,"endpoint: mean tumor weight, dose: 50.0 mg/kg/injection, schedule: Q07DX006 (ip), vehicle: saline + alcohol",4 % of control
same,T/C,"endpoint: mean tumor weight, dose: 50.0 mg/kg/injection, schedule: Q07DX006 (ip), vehicle: saline",7 % of control
same,T/C,"endpoint: mean tumor weight, dose: 50.0 mg/kg/injection, schedule: Q07DX007 (ip), vehicle: saline + alcohol",66 % of control
same,T/C,"endpoint: median tumor weight (est.), dose: 2.0 mg/kg/injection, schedule: Q07DX005 (ip), vehicle: Klucel (hydroxypropylcellulose) (HPC)",98 % of control
same,T/C,"endpoint: median tumor weight (est.), dose: 4.0 mg/kg/injection, schedule: Q07DX005 (ip), vehicle: Klucel (hydroxypropylcellulose) (HPC)",50 % of control
same,T/C,"endpoint: median tumor weight (est.), dose: 8.0 mg/kg/injection, schedule: Q07DX005 (ip), vehicle: Klucel (hydroxypropylcellulose) (HPC)",38 % of control
same,T/C,"endpoint: median tumor weight (est.), dose: 16.0 mg/kg/injection, schedule: Q07DX005 (ip), vehicle: Klucel (hydroxypropylcellulose) (HPC)",24 % of control
same,T/C,"endpoint: median tumor weight change, dose: 8.0 mg/kg/injection, schedule: Q01DX001 (ip), vehicle: Klucel (hydroxypropylcellulose) (HPC)",98 % of control
same,T/C,"endpoint: median tumor weight change, dose: 13.8 mg/kg/injection, schedule: Q01DX001 (ip), vehicle: Klucel (hydroxypropylcellulose) (HPC)",68 % of control
same,T/C,"endpoint: median tumor weight change, dose: 16.0 mg/kg/injection, schedule: Q01DX001 (ip), vehicle: Klucel (hydroxypropylcellulose) (HPC)",78 % of control
same,T/C,"endpoint: median tumor weight change, dose: 23.0 mg/kg/injection, schedule: Q01DX001 (ip), vehicle: Klucel (hydroxypropylcellulose) (HPC)",23 % of control
same,T/C,"endpoint: median tumor weight change, dose: 32.0 mg/kg/injection, schedule: Q01DX001 (ip), vehicle: Klucel (hydroxypropylcellulose) (HPC)",42 % of control
same,T/C,"endpoint: median tumor weight change, dose: 38.4 mg/kg/injection, schedule: Q01DX001 (ip), vehicle: Klucel (hydroxypropylcellulose) (HPC)",-12 % of control
same,T/C,"endpoint: median tumor weight change, dose: 64.0 mg/kg/injection, schedule: Q01DX001 (ip), vehicle: Klucel (hydroxypropylcellulose) (HPC)",-13 % of control and -32 % of control
CO[C@H]1C[C@](C)(O)Cc2cc3c(c(O)c21)C(=O)c1c(O)cc2c(c1C3=O)O[C@@H]1O[C@@]2(C)[C@H](O)[C@@H](N(C)C)[C@@H]1O,T/C,"endpoint: median tumor weight (est.), dose: 7.0 mg/kg/injection, schedule: Q07DX005 (ip), vehicle: saline with Tween-80",62 % of control
same,T/C,"endpoint: median tumor weight (est.), dose: 11.0 mg/kg/injection, schedule: Q07DX005 (ip), vehicle: saline with Tween-80",60 % of control
same,T/C,"endpoint: median tumor weight (est.), dose: 16.0 mg/kg/injection, schedule: Q07DX005 (ip), vehicle: saline with Tween-80",75 % of control
same,T/C,"endpoint: median tumor weight (est.), dose: 24.0 mg/kg/injection, schedule: Q07DX005 (ip), vehicle: saline with Tween-80",64 % of control
same,T/C,"endpoint: median tumor weight (est.), dose: 48.0 mg/kg/injection, schedule: Q07DX005 (ip), vehicle: saline with Tween-80",10 % of control
COC(=O)C(CSC(c1ccccc1)(c1ccccc1)c1ccccc1)NC(=O)C(CC(N)=O)NC(=O)OCc1ccccc1 (stereo not drawn) (Cbz-Asn-Cys(Trt)-OMe; configuration not given here),T/C,"endpoint: median tumor weight change, dose: 125.0 mg/kg/injection, schedule: Q01DX001 (ip), vehicle: distilled water + Tween-80",101 % of control and 116 % of control
same,T/C,"endpoint: median tumor weight change, dose: 500.0 mg/kg/injection, schedule: Q01DX001 (ip), vehicle: distilled water + Tween-80",50 % of control
same,T/C,"endpoint: median tumor weight change, dose: 2000.0 mg/kg/injection, schedule: Q01DX001 (ip), vehicle: distilled water + Tween-80",40 % of control and 57 % of control
Cc1c(N)nc(C(CC(N)=O)NCC(N)C(N)=O)nc1C(=O)NC(C(=O)NC(C)C(O)C(C)C(=O)NC(C(=O)NCCc1nc(-c2nc(C(=O)NCCCNC(C)c3ccccc3)cs2)cs1)C(C)O)C(OC1OC(CO)C(O)C(O)C1OC1OC(CO)C(O)C(OC(N)=O)C1O)c1cnc[nH]1 (configuration not stated),T/C,"endpoint: median tumor weight (est.), dose: 0.5 mg/kg/injection, schedule: Q07DX005 (ip), vehicle: water",122 % of control
same,T/C,"endpoint: median tumor weight (est.), dose: 1.0 mg/kg/injection, schedule: Q07DX005 (ip), vehicle: water",123 % of control
same,T/C,"endpoint: median tumor weight (est.), dose: 2.0 mg/kg/injection, schedule: Q07DX005 (ip), vehicle: water",89 % of control
same,T/C,"endpoint: median tumor weight (est.), dose: 4.0 mg/kg/injection, schedule: Q07DX005 (ip), vehicle: water",29 % of control
same,T/C,"endpoint: median tumor weight (est.), dose: 8.0 mg/kg/injection, schedule: Q07DX005 (ip), vehicle: water",78 % of control
same,T/C,"endpoint: median tumor weight (est.), dose: 16.0 mg/kg/injection, schedule: Q07DX005 (ip), vehicle: water",21 % of control
CCCCCC(O)C1C(=O)OC(C)C(O)/C=C/C=C/C=C/C=C\C=C(\C)C(O)CC(O)CC(O)CC(O)CC(O)CC(O)CC1O (configuration not stated),T/C,"endpoint: median tumor weight change, dose: 62.5 mg/kg/injection, schedule: Q01DX001 (ip), vehicle: distilled water + Tween-80",150 % of control
CN1C(=O)C(=Cc2ccc(O)cc2)C(=O)N(C)C1=O,T/C,[1],94 % of control
same,T/C,[2],165 % of control
CN(Cc1cnc2nc(N)nc(N)c2n1)c1c(Cl)cc(C(=O)NC(CCC(=O)O)C(=O)O)cc1Cl (configuration not stated),T/C,"endpoint: median tumor weight (est.), dose: 25.0 mg/kg/injection, schedule: Q07DX005 (ip), vehicle: Klucel (hydroxypropylcellulose) (HPC)",72 % of control and 82 % of control
same,T/C,"endpoint: median tumor weight (est.), dose: 50.0 mg/kg/injection, schedule: Q07DX005 (ip), vehicle: Klucel (hydroxypropylcellulose) (HPC)",53 % of control and 65 % of control
C=C1C(=O)OCC2C(C(=O)O)=CC3C(C)C(C)=CC123 (configuration not stated),T/C,"endpoint: median tumor weight (est.), dose: 10.0 mg/kg/injection, schedule: Q07DX005 (ip), vehicle: Klucel (hydroxypropylcellulose) (HPC)",101 % of control
same,T/C,"endpoint: median tumor weight (est.), dose: 20.0 mg/kg/injection, schedule: Q07DX005 (ip), vehicle: Klucel (hydroxypropylcellulose) (HPC)",95 % of control and 105 % of control
same,T/C,"endpoint: median tumor weight (est.), dose: 40.0 mg/kg/injection, schedule: Q07DX005 (ip), vehicle: Klucel (hydroxypropylcellulose) (HPC)",100 % of control and 114 % of control
same,T/C,"endpoint: median tumor weight (est.), dose: 80.0 mg/kg/injection, schedule: Q07DX005 (ip), vehicle: Klucel (hydroxypropylcellulose) (HPC)",75 % of control and 85 % of control
same,T/C,"endpoint: median tumor weight (est.), dose: 160.0 mg/kg/injection, schedule: Q07DX005 (ip), vehicle: Klucel (hydroxypropylcellulose) (HPC)",101 % of control
COc1cc2c(cc1O)N=C[C@@H]1CCC(O)N1C2=O (mixture of isomers),T/C,"endpoint: median tumor weight (est.), dose: 2.0 mg/kg/injection, schedule: Q07DX005 (ip), vehicle: saline",103 % of control
same,T/C,"endpoint: median tumor weight (est.), dose: 4.0 mg/kg/injection, schedule: Q07DX005 (ip), vehicle: saline",79 % of control
same,T/C,"endpoint: median tumor weight (est.), dose: 8.0 mg/kg/injection, schedule: Q07DX005 (ip), vehicle: saline",160 % of control
c1cc2n(n1)CCN2,T/C,"endpoint: median tumor weight (est.), dose: 12.5 mg/kg/injection, schedule: Q07DX005 (ip), vehicle: saline",76 % of control
same,T/C,"endpoint: median tumor weight (est.), dose: 25.0 mg/kg/injection, schedule: Q07DX005 (ip), vehicle: saline",94 % of control
same,T/C,"endpoint: median tumor weight (est.), dose: 50.0 mg/kg/injection, schedule: Q07DX005 (ip), vehicle: saline",102 % of control
same,T/C,"endpoint: median tumor weight (est.), dose: 100.0 mg/kg/injection, schedule: Q07DX005 (ip), vehicle: saline",85 % of control
same,T/C,"endpoint: median tumor weight (est.), dose: 200.0 mg/kg/injection, schedule: Q07DX005 (ip), vehicle: saline",54 % of control
same,T/C,"endpoint: median tumor weight (est.), dose: 400.0 mg/kg/injection, schedule: Q07DX005 (ip), vehicle: saline",46 % of control
CC(C#N)(C#N)N=Nc1ccc(Cl)cc1Cl,T/C,[1],161 % of control
same,T/C,[2],115 % of control
same,T/C,"endpoint: median tumor weight change, dose: 1000.0 mg/kg/injection, schedule: Q01DX001 (ip), vehicle: saline with Tween-80",76 % of control
CO[C@H](/C(C)=C/C=C/C(C)=C/c1coc(C)n1)[C@H](C)[C@H]1C[C@@H](O)[C@@]2(C)O[C@H]2/C=C/[C@@H](C)[C@@H]2C[C@@H](CC(=O)O2)C[C@H]2O[C@@H]2C(=O)O1,T/C,"endpoint: median tumor weight change, dose: 0.06 mg/kg/injection, schedule: Q01DX001 (ip), vehicle: Klucel (hydroxypropylcellulose) (HPC)",175 % of control
same,T/C,"endpoint: median tumor weight change, dose: 0.25 mg/kg/injection, schedule: Q01DX001 (ip), vehicle: Klucel (hydroxypropylcellulose) (HPC)",83 % of control
same,T/C,"endpoint: median tumor weight change, dose: 0.5 mg/kg/injection, schedule: Q01DX001 (ip), vehicle: Klucel (hydroxypropylcellulose) (HPC)",110 % of control
same,T/C,"endpoint: median tumor weight change, dose: 1.0 mg/kg/injection, schedule: Q01DX001 (ip), vehicle: Klucel (hydroxypropylcellulose) (HPC)",101 % of control
Nc1cc2c3c(cccc3c1)C(=O)N(CCN1CCCC1)C2=O,T/C,"endpoint: median tumor weight change, dose: 15.63 mg/kg/injection, schedule: Q01DX001 (ip), vehicle: saline with Tween-80",114 % of control
N=C(N)c1ccc(/C=C/c2ccc(C(=N)N)cc2O)cc1,T/C,"endpoint: median tumor weight (est.), dose: 12.5 mg/kg/injection, schedule: Q07DX005 (ip), vehicle: water",75 % of control and 76 % of control
